Data as given in patent US20230256217A1, “OZONE GENERATION APPARATUSES AND METHODS OF TREATING WOUNDS” (priority 2020, published 2023).

Experiments:
P. aeruginosa [1] = conditions: cited from earlier work
S. epidermidis = conditions: cited from earlier work
P. aeruginosa [2] = assay: Adjunct ozone and antibiotic therapy antibacterial test; format: cell-based; conditions: ozone 100 ppm (4 mg/hr) for six hours; antibiotic 20 μg/mL; 37° C.
Description: To test the antibacterial effects of ozone in combination with antibiotics, a P. aeruginosa culture was inoculated in a solution of […] soy broth (TSB) and incubated overnight. A sample of the mature culture was diluted in new TSB at 1:50. The new culture media was then pipetted into test wells in triplicate at 1:10 with either linezolid or vancomycin solution in phosphate buffered saline (PBS) at 200 μg/mL. […] The bacterial samples were subject to the combination treatment of 100 ppm (4 mg/hr) ozone with vancomycin at 20 μg/mL and linezolid at 20 μg/mL. During testing, the test samples were kept at 37° C. At 2, 4, and six hours, 20 μL samples were withdrawn from the designated set of wells and plated on TSB agar plates. Bacterial colonies were counted after being incubated overnight at 37°. Experimental adjunct therapy samples were compared against treatment of only ozone, and control cultures exposed to antibiotics without the ozone. Because both antibiotics in the test (linezolid and vancomycin) are designed to be effective against G+ve bacteria, it was expected that neither will show any effect against the bacterial strain unless combined with ozone. Additionally, treatment was administered to in vitro colonies of P. aeruginosa under ideal conditions for bacterial growth.

P. aeruginosa ATCC 15442 = assay: Antibacterial test of ozone applied by the patch; format: cell-based; conditions: initial 5 log CFU/mL concentration; within six hours of treatment
Description: (§1) The antibacterial properties of the patch 10 were assessed by exposing multiple strains of antibiotic resistant bacteria (both Gram-negative and Gram-positive) to the ozone applied by the patch 10 for six hours, and measuring the living concentration every one to two hours. Experiments using two common strains of antibiotic resistant bacteria common in skin infections, S. epidermidis NRS101 and P. aeruginosa ATCC 15442, indicated positive results. […] FIGS. 8A through 8C show bacteria stain images of the samples before and after treatment, and a control. At first, all of the bacteria were stained green, and then any dead bacteria were re-stained with the red. These images show qualitatively that the bacteria before the treatment are living, and afterward are mostly dead. […] Additionally, results for the Gram-negative bacteria, P. aeruginosa, indicated even better results. […] FIGS. 8D, 8E, and 8F show similar stain images for P. aeruginosa.

S. epidermidis NRS101 = assay: Antibacterial test of ozone applied by the patch; format: cell-based; conditions: six hours of ozone exposure through the patch
Description: as §1

P. aeruginosa [3] = assay: Secondary study: pristine vs biofluid-preconditioned patch, bacteria spotted on filter paper; format: cell-based; conditions: ozone for six hours
Description: A secondary study was also conducted on P. aeruginosa to verify that prolonged contact to a wound environment would not change antimicrobial properties. In each case, 100 μL of P. aeruginosa was diluted into 1 mL of PBS and spotted onto filter paper. Each experimental trial was exposed to the ozone for six hours. The first test was conducted through an untreated patch 10, while the second was conducted using a patch 10 that had been preconditioned by resting on a damp sponge filled with mammalian cell culture media overnight. FIGS. 9A and 9B report the results of the tests when compared to the controls, which were prepared in the same way, but exposed to no ozone treatment.

[4] = test system: normal mammary fibroblasts HMS-32 cells; assay: Cytotoxicity of ozone treatment on human cells; format: cell-based
Description: FIGS. 10A through 10D include images of normal mammary fibroblasts HMS-32 cells initial (FIG. 10A), after six hours of ozone treatment (FIG. 10B), 24 hours after ozone treatment (FIG. 10C), and 48 hours after ozone treatment (FIG. 10D). Scale bar 10 micrometers. FIG. 10E contains a graph showing percentage of apoptotic cells at each time in a control group and an experimental group. Data was collected from triplicate samples, with error bars indicating standard deviation.
The possibility for the use of ozone to treat antibiotic resistant infections is also dependent on the apparatus not damaging the normal skin cells. Cytotoxic experimentation was conducted to determine how the ozone treatment would interact with human skin cells (FIG. 10A through 10D). […] Ozone treatment has been used to increase the healing process for chronic wounds, so there is good reason to believe a high level of biocompatibility exists. […] Similar to the stain imaging done for the antimicrobial results, FIGS. 10A through 10D are stain images that show the health of the cells at each time point. In each cell, F-actin was stained green, and the nuclei were stained blue. These images support finding minimal cytotoxicity because there is no noticeable difference in the images over time. […]

human keratinocyte cells = assay: Biocompatibility of adjunct therapy; format: cell-based; conditions: six hour, 100 ppm ozone; nanofiber solution with or without antibiotic
Description: By studying the biocompatibility, it was determined that the treatment system was both effective and safe to use. To test this, human keratinocyte cells were either exposed to the ozone therapy (with or without antibiotics) or left as a control. In each case, cell samples were exposed to test inhibitory concentration of the nanofiber solution containing either linezolid, vancomycin, or no antibiotic. Tests were conducted under the same six hour and 100 ppm ozone parameters as the antibacterial studies.

For colistin, the “known effectiveness / resistance” value (P. aeruginosa [1]) is given as “known to be effective”.
In the case of `C[C@@H](O)[C@H]1C(=O)N2C(C(=O)O)=C(S[C@@H]3CN[C@H](C(=O)N(C)C)C3)[C@H](C)[C@H]12` [meropenem], the “known effectiveness / resistance” value (P. aeruginosa [1]) is listed as “known to be effective”.
In the case of `Cc1onc(-c2ccccc2)c1C(=O)N[C@@H]1C(=O)N2[C@@H]1SC(C)(C)[C@@H]2C(=O)O` [oxacillin], the “known effectiveness / resistance” value (S. epidermidis) is listed as “resisted”.
For penicillin, the “known effectiveness / resistance” value (P. aeruginosa [1]) is given as “resisted” and the “known effectiveness / resistance” value (S. epidermidis) is given as “resisted”.
In the case of `CC(=O)NC[C@H]1CN(c2ccc(N3CCOCC3)c(F)c2)C(=O)O1` [linezolid], the “bacterial population (CFU/mL) compared to initial” value (P. aeruginosa [2]) is reported as “did not inhibit the growth of the bacteria at all”.
In the case of `CN[C@H](CC(C)C)C(=O)N[C@H]1C(=O)N[C@@H](CC(N)=O)C(=O)N[C@H]2C(=O)N[C@H]3C(=O)N[C@H](C(=O)N[C@H](C(=O)O)c4cc(O)cc(O)c4-c4cc3ccc4O)[C@H](O)c3ccc(c(Cl)c3)Oc3cc2cc(c3O[C@@H]2O[C@H](CO)[C@@H](O)[C@H](O)[C@H]2O[C@H]2C[C@](C)(N)[C@H](O)[C@H](C)O2)Oc2ccc(cc2Cl)[C@H]1O` [vancomycin], the “bacterial population (CFU/mL) compared to initial” value (P. aeruginosa [2]) is given as “no impact on bacteria growth” and the “known effectiveness / resistance” value (S. epidermidis) is given as “known to be effective”.
In the case of `O=[O+][O-]` [ozone], the eradication of bacteria (P. aeruginosa ATCC 15442) is reported as “completely eradicate”, the “log10 reduction CFU/mL” value (S. epidermidis NRS101) is reported as 0.8 log10 reduction CFU/mL and the “reduction from the starting inoculum” value (S. epidermidis NRS101) is reported as “greater than 70%”. The elimination of bacteria (P. aeruginosa [3]; patch preconditioned overnight on sponge with mammalian cell culture media) was “complete elimination of bacteria”, the elimination of bacteria (P. aeruginosa [3]; untreated (pristine) patch) was “complete elimination of bacteria” and the “increase in cell apoptosis” value ([4]; after six, 24 and 48 hours) was “no significant increase in cell apaptosis”. For the same compound, the “increase in cell apoptosis” value ([4]; over 48 hours after six hours of ozone exposure) was 6.5% and the “percent of cell viability” value (human keratinocyte cells) was “did not significantly change”.
For `NC[C@H]1O[C@H](O[C@H]2[C@H](O)[C@@H](O[C@H]3O[C@H](CO)[C@@H](O)[C@H](N)[C@H]3O)[C@H](N)C[C@@H]2N)[C@H](N)C[C@@H]1O` [tobramycin], the “known effectiveness / resistance” value (P. aeruginosa [1]) is listed as “resisted”.
